For the data set, the system named is CCRIS mutagenicity, Ames/micronucleus/aberration tests. As to the kind of experiment: CCRIS mutagenicity studies.
Setting [1] is: Test System: AMES SALMONELLA TYPHIMURIUM, Strain/Indicator: TA98, Metabolic Activation: RAT, LIVER, S-9, AROCLOR 1254, Method: STANDARD PLATE.
[2] abbreviates: Test System: AMES SALMONELLA TYPHIMURIUM, Strain/Indicator: TA98, Metabolic Activation: NONE, Method: STANDARD PLATE.
[3] abbreviates: Test System: AMES SALMONELLA TYPHIMURIUM, Strain/Indicator: TA100, Metabolic Activation: NONE, Method: STANDARD PLATE.

The source made the active and inactive calls. How the calls were made is not given here.

Regarding `c1ccc2ncccc2c1`, the mutagenic call was “inactive; negative” (End Point: IN VITRO CHROMOSOMAL ABERRATIONS, Test System: CHL CELLS, Metabolic Activation: NONE); “active; positive (structural changes)” (End Point: IN VITRO CHROMOSOMAL ABERRATIONS, Test System: CHL CELLS, Metabolic Activation: RAT, LIVER, S-9, SODIUM PHENOBARBITAL AND 5,6-BENZOFLAVONE); “active; positive” (End Point: IN VIVO MICRONUCLEUS, Test System: HEPATOCYTES, Species: RAT, Strain/Sex: FISHER 344 OR SD/MALE, Route: ORAL OR IP); “inactive; negative; significant increase at 150 mg/kg” (End Point: IN VIVO MICRONUCLEUS, Test System: PERIPHERAL BLOOD RETICULOCYTES, Species: RAT, Strain/Sex: FISHER 344 OR SD/MALE, Route: ORAL OR IP); “active; positive (information derived from figure)” (End Point: In vitro chromosomal aberrations, Test System: Chinese hamster lung fibroblast cells (CHL/IU), Metabolic Activation: Rat, liver, S-9); “active; positive, cytotoxic at 0.1 mg/ml (information derived from a figure)” (End Point: In vitro micronucleus, Test System: Chinese hamster lung fibroblast cells (CHL/IU), Metabolic Activation: Rat, Liver, S-9). Besides, the mutagenic call (End Point: In vitro micronucleus, Test System: Chinese hamster lung fibroblast cells (CHL/IU), Metabolic Activation: Rat, liver, S-9) is “active; positive (information derived from a figure)”; the mutagenic call (End Point: In vivo micronucleus, Test System: Micronucleated hepatocytes, Species: Rat, Strain/Sex: F344/Male, Route: Oral) is “active; positive (p<0.05)”; the mutagenic call (Test System: AMES SALMONELLA TYPHIMURIUM, Strain/Indicator: TA98, Metabolic Activation: NONE, Method: PREINCUBATION) is “inactive; negative”; the mutagenic call (Test System: AMES SALMONELLA TYPHIMURIUM, Strain/Indicator: TA98, Metabolic Activation: RAT LIVER S-9, PHENOBARBITAL AND BETA-NAPHTHOFLAVONE, Method: PREINCUBATION) was “active; positive”; the mutagenic call (Test System: AMES SALMONELLA TYPHIMURIUM, Strain/Indicator: TA98, Metabolic Activation: RAT, LIVER, S-9, (5%, 10% OR 20%) AROCLOR 1254, Method: STANDARD PLATE) was “active; positive”; the mutagenic call under setting [1] was “active; positive”. Moreover, the mutagenic call was “active; positive” (Test System: AMES SALMONELLA TYPHIMURIUM, Strain/Indicator: TA98, Metabolic Activation: RAT, LIVER, S-9, KC500 OR PHENOBARBITAL, Method: LIQUID SUSPENSION); “active; positive” (Test System: AMES SALMONELLA TYPHIMURIUM, Strain/Indicator: TA98, Metabolic Activation: RAT, LIVER, S-9, PCB, Method: PREINCUBATION); “active; positive” (Test System: AMES SALMONELLA TYPHIMURIUM, Strain/Indicator: TA98, Metabolic Activation: RAT, LIVER, S-9, Method: PREINCUBATION); “inactive; negative” (Test System: AMES SALMONELLA TYPHIMURIUM, Strain/Indicator: TA100, Metabolic Activation: NONE, Method: PREINCUBATION); “active; positive” (Test System: AMES SALMONELLA TYPHIMURIUM, Strain/Indicator: TA100, Metabolic Activation: RAT LIVER S-9, PHENOBARBITAL AND 5,6-BENZOFLAVONE, Method: PREINCUBATION); “active; positive” (Test System: AMES SALMONELLA TYPHIMURIUM, Strain/Indicator: TA100, Metabolic Activation: RAT LIVER S-9, PHENOBARBITAL AND BETA-NAPHTHOFLAVONE, Method: PREINCUBATION). In addition, the mutagenic call (Test System: AMES SALMONELLA TYPHIMURIUM, Strain/Indicator: TA100, Metabolic Activation: RAT, LIVER, S-9 (5%, 10% OR 20%) AROCLOR 1254, Method: STANDARD PLATE) is “active; positive”; the mutagenic call (Test System: AMES SALMONELLA TYPHIMURIUM, Strain/Indicator: TA100, Metabolic Activation: RAT, LIVER, S-9, (5%, 10% OR 20%,) AROCLOR 1254, Method: STANDARD PLATE) was “active; positive”; the mutagenic call (Test System: AMES SALMONELLA TYPHIMURIUM, Strain/Indicator: TA100, Metabolic Activation: RAT, LIVER, S-9, AROCLOR 1254, Method: PREINCUBATION) is “active; positive”; the mutagenic call (Test System: AMES SALMONELLA TYPHIMURIUM, Strain/Indicator: TA100, Metabolic Activation: RAT, LIVER, S-9, KC500 OR PHENOBARBITAL, Method: LIQUID SUSPENSION) was “active; positive”; the mutagenic call (Test System: AMES SALMONELLA TYPHIMURIUM, Strain/Indicator: TA100, Metabolic Activation: RAT, LIVER, S-9, PCB, Method: STANDARD PLATE) is “active; positive”; the mutagenic call (Test System: AMES SALMONELLA TYPHIMURIUM, Strain/Indicator: TA100, Metabolic Activation: RAT, LIVER, S-9, PHENOBARBITAL AND 5,6-BENZOFLAVONE, Method: PREINCUBATION) was “active; positive”. The mutagenic call was “active; positive” (Test System: AMES SALMONELLA TYPHIMURIUM, Strain/Indicator: TA100, Metabolic Activation: RAT, LIVER, S-9, PHENOBARBITAL AND 5,6-NAPHTHOFLAVONE, Method: PREINCUBATION); “active; positive” (Test System: AMES SALMONELLA TYPHIMURIUM, Strain/Indicator: TA100, Metabolic Activation: RAT, LIVER, S-9, Method: PREINCUBATION); “active; positive” (Test System: AMES SALMONELLA TYPHIMURIUM, Strain/Indicator: TA100, Metabolic Activation: S-9, Method: PREINCUBATION); “inactive; negative” (Test System: AMES SALMONELLA TYPHIMURIUM, Strain/Indicator: TA1535, Metabolic Activation: NONE, Method: PREINCUBATION); “inactive; negative” (Test System: AMES SALMONELLA TYPHIMURIUM, Strain/Indicator: TA1535, Metabolic Activation: RAT, LIVER, S-9, AROCLOR 1254, Method: STANDARD PLATE); “inactive; negative” (Test System: AMES SALMONELLA TYPHIMURIUM, Strain/Indicator: TA1537, Metabolic Activation: NONE, Method: PREINCUBATION). In addition, the mutagenic call (Test System: E. COLI, Strain/Indicator: WP2UVRA, Metabolic Activation: NONE, Method: PREINCUBATION) was “inactive; negative”; the mutagenic call (Test System: E.COLI, Strain/Indicator: WP2UVRA, Metabolic Activation: RAT LIVER S-9, PHENOBARBITAL AND BETA-NAPHTHOFLAVONE, Method: PREINCUBATION) was “active; positive”; the mutagenic call (Test System: UDS RODENT HEPATOCYTES, Strain/Indicator: THY INCORP (NON-S-PHASE), Metabolic Activation: IN VIVO, Method: AUTORADIOGRAPHY) is “inactive; negative”; the mutagenic call (Test System: UDS RODENT HEPATOCYTES, Strain/Indicator: THY INCORP (NON-S-PHASE), Metabolic Activation: NONE, Method: AUTORADIOGRAPHY) was “active; positive”.

`Nc1ncnc2c1ncn2[C@H]1C[C@H](O)[C@@H](CO)O1`: the mutagenic call by setting is: under setting [2], “inactive; negative”; (Test System: AMES SALMONELLA TYPHIMURIUM, Strain/Indicator: TA98, Metabolic Activation: RAT, LIVER, S-9, POLYCHLORINATED BIPHENYLS, Method: STANDARD PLATE) “inactive; negative”; under setting [3], “inactive; negative”; (Test System: AMES SALMONELLA TYPHIMURIUM, Strain/Indicator: TA100, Metabolic Activation: RAT, LIVER, S-9, POLYCHLORINATED BIPHENYLS, Method: STANDARD PLATE) “inactive; negative”; (Test System: MOUSE LYMPHOMA, Strain/Indicator: L5178Y (TK+/TK-), Metabolic Activation: NONE, Method: SUSPENSION/PLATE) “active; positive”.

In the case of `CC(=O)[C@]1(O)Cc2c(O)c3c(c(O)c2[C@@H](O)C1)C(=O)c1c(O)cccc1C3=O`, the mutagenic call reads like this: under setting [2], “active; positive”; under setting [1], “active; positive”; under setting [3], “inactive; negative”; (Test System: AMES SALMONELLA TYPHIMURIUM, Strain/Indicator: TA1538, Metabolic Activation: NONE, Method: STANDARD PLATE) “inactive; negative”.

Turning to `CNc1ccc(N=Nc2ccc(NC)cc2)cc1`, the mutagenic call by setting is: (Test System: AMES SALMONELLA TYPHIMURIUM, Strain/Indicator: TA98, Metabolic Activation: RAT, LIVER, S-9, POLYCHLORINATED BIPHENYLS, Method: PREINCUBATION) “inactive; negative”; (Test System: AMES SALMONELLA TYPHIMURIUM, Strain/Indicator: TA100, Metabolic Activation: RAT, LIVER, S-9, POLYCHLORINATED BIPHENYLS, Method: PREINCUBATION) “inactive; negative”.

These data come from PubChem BioAssay AID1259407 (Chemical Carcinogenesis Research Information System (CCRIS), 2018).
